Biological target: RIPK2 (Homo sapiens (Human), UniProt O43353)
Assay: RIPK2 inhibition, ADP-Glo Kinase Assay
Assay type: biochemical
Settings: 8His-RIPK2 FL enzyme 8 nM, ATP 5 μM, 15 minutes pre-incubation, 60 minutes at 37° C., luminescence
Method: RIPK2 inhibition for compounds in Table 1 are shown in Table 3 and measured using the following method:
Materials: White, 384-well optiplates (cat.no. 6007290) were purchased from PerkinElmer. The V9103X ADP-Glo Kinase Assay Custom (including ultra-pure ATP) was purchased from Promega. 8His-RIPK2 FL was prepared in-house. All other materials were of highest grade commercially available.
Method: In a 384-well plate, test compound diluted in assay buffer (1% DMSO final) is mixed with 8His-RIPK2 FL enzyme (final concentration of 8 nM). After 15 minutes of pre-incubation at RT, ATP dissolved in assay buffer is added (final concentration 5 μM). The mixture is incubated for 60 minutes at 37° C. in a humidified incubator. Then, ADP Glo Reagent is added, followed by a 40 minute incubation at rt. Finally, Kinase Detection Reagent is added and the entire mixture is incubated for 40 min at RT. The luminescence signal is measured with an Envision reader to determine the amount of ADP produced. Assay buffer: 25 mM HEPES (4-(2-hydroxyethyl)-1-piperazinethanesulfonic acid), 0.1% BSA (bovine serum albumin), 10 mM MgCl2, 5 mM MnCl2, 50 mM KCl, 0.01% CHAPS (3-[(3-cholamidopropyl)dimethylammonio]-1-propanesulfonate), 10 μM Na3VO4, 1 mM DTT (dithiothreitol), pH 7.5 All plates contain wells with vehicle controls instead of compound (1% DMSO) as reference for the high signal (100% CTL (100% of control), high signal), and wells without enzyme as reference for low signal (0% CTL, low signal). The luminescent signal generated is proportional to the ADP produced and is correlated with enzyme activity. The analysis of the data is performed by the calculation of the percentage of ADP production in the presence of the test compound and RIPK2 as compared to the ADP production in the presence of RIPK2 plus 50 μM Gefitinib. (RLU (relative luminescence units) (sample)−RLU(low control))*100/(RLU(high value)−RLU(low control)) [RLU=relative luminescence units].

Sequence of RIPK2 (O43353 whole entry): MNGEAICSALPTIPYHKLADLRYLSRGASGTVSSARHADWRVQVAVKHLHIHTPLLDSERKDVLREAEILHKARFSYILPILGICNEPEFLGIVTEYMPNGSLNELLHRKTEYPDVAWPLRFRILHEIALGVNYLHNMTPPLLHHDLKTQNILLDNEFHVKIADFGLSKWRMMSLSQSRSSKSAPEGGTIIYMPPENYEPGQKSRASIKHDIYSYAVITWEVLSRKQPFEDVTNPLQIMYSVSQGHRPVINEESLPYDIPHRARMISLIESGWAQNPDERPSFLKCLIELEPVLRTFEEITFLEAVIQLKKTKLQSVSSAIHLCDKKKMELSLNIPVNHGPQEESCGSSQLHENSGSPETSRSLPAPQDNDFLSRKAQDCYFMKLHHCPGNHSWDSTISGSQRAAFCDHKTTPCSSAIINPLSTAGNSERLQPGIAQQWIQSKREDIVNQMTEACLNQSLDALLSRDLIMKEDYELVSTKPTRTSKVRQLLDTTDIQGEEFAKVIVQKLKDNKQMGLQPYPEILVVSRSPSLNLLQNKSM

Row | Compound | IC50 [nM]
1 | Cc1cc(F)c(C(=O)NC2CC2)cc1-c1cnn(-c2cncc(N[C@H]3CCN(C)CC3(F)F)c2)c1 (single isomer, unassigned) [Example 175] | 1.7
2 | Cc1cc(F)c(C(=O)NC2CC2)cc1-c1cnn(-c2cncc(N[C@@H]3CCN(C)CC3(F)F)c2)c1 (single isomer, unassigned) [Example 176] | 1.5
3 | COc1cncc(-n2cc(-c3cc(C(=O)NC4CC4)c(F)cc3C)cn2)c1 [Example 25, N-cyclopropyl-2-fluoro-5-[1-(5-methoxypyridin-3-yl)-1H-pyrazol-4-yl]-4-methylbenzamide] | 3.7
4 | COc1cncc(-n2cc(-c3cc(C(=O)NC4CC4)c(F)cc3Cl)cn2)c1 [Example 26, 4-chloro-N-cyclopropyl-2-fluoro-5-[1-(5-methoxypyridin-3-yl)-1H-pyrazol-4-yl]benzamide] | 8.9
5 | COc1cncc(-n2cc(-c3cc(C(=O)NC4CC4)ccc3Cl)cn2)c1 [Example 27, 4-chloro-N-cyclopropyl-3-[1-(5-methoxypyridin-3-yl)-1H-pyrazol-4-yl]benzamide] | 22
6 | COc1cncc(-n2cc(-c3cc(C(=O)NC4CC4)ccc3C)cn2)c1 [Example 28, N-cyclopropyl-3-[1-(5-methoxy-pyridin-3-yl)-1H-pyrazol-4-yl]-4-methylbenzamide] | 15
7 | O=C(NC1CC1)c1ccc(Cl)c(-c2cnn(-c3cccnc3)c2)c1 [Example 31, 4-chloro-N-cyclopropyl-3-[1-(pyridin-3-yl)-1H-pyrazol-4-yl]benzamide] | 94
8 | O=C(NC1CC1)c1cc(-c2cnn(-c3cccnc3)c2)c(Cl)cc1F [Example 32, 4-chloro-N-cyclopropyl-2-fluoro-5-[1-(pyridin-3-yl)-1H-pyrazol-4-yl] benzamide] | 14
9 | COc1cncc(-n2cnc(-c3cc(C(=O)NC4CC4)c(F)cc3Cl)c2)c1 [Example 33, 4-chloro-N-cyclopropyl-2-fluoro-5-[1-(5-methoxypyridin-3-yl)-1H-imidazol-4-yl]benzamide] | 7.4
10 | Cc1ccc(C(=O)NC2CC2)cc1-c1cnn(-c2cccnc2)c1 [Example 34, N-cyclopropyl-4-methyl-3-[1-(pyridin-3-yl)-1H-pyrazol-4-yl] benzamide] | 38
11 | Cc1ccc(C(=O)NC2CC2)cc1-c1cn(-c2cccnc2)cn1 [Example 35, N-cyclopropyl-4-methyl-3-[1-(pyridin-3-yl)-1H-imidazol-4-yl] benzamide] | 39
12 | CCOc1cncc(-n2cc(-c3cc(C(=O)NC4CC4)ccc3C)cn2)c1 [Example 36, N-cyclopropyl-3-[1-(5-ethoxypyridin-3-yl)-1H-pyrazol-4-yl]-4-methyl-benzamide] | 8.8
13 | CNCc1cncc(-n2cc(-c3cc(C(=O)NC4CC4)ccc3C)cn2)c1 [Example 39, N-cyclopropyl-4-methyl-3-(1-{5-[(methylamino)methyl]pyridin-3-yl}-1H-pyrazol-4-yl)benzamide] | 180
14 | Cc1ccc(C(=O)NC2CC2)cc1-c1cnn(-c2cncc(CO)c2)c1 [Example 43, N-cyclopropyl-3-{1-[5-(hydroxymethyl)pyridin-3-yl]-1H-pyrazol-4-yl}-4-methylbenzamide] | 24
15 | Cc1ccc(C(=O)NC2CC2)cc1-c1cnn(-c2cncc(N(C)C)c2)c1 [Example 44, N-cyclopropyl-3-{1-[5-(dimethylamino)pyridin-3-yl]-1H-pyrazol-4-yl}-4-methylbenzamide] | 6.4
16 | Cc1ccc(C(=O)NC2CC2)cc1-c1cnn(-c2cncc(C3CC3)c2)c1 [Example 45, N-cyclopropyl-3-[1-(5-cyclopropyl-pyridin-3-yl)-1H-pyrazol-4-yl]-4-methylbenzamide] | 3.6
17 | Cc1ccc(C(=O)NC2CC2)cc1-c1cnn(-c2cncc(S(C)(=O)=O)c2)c1 [Example 46, N-cyclopropyl-3-[1-(5-methanesulfonylpyridin-3-yl)-1H-pyrazol-4-yl]-4-methylbenzamide] | 190
18 | Cc1ccc(C(=O)NC2CC2)cc1-c1cnn(-c2cncc(C(F)(F)F)c2)c1 [Example 47, N-cyclopropyl-4-methyl-3-{1-[5-(trifluoromethyl)pyridin-3-yl]-1H-pyrazol-4-yl}benzamide] | 57
19 | Cc1ccc(C(=O)NC2CC2)cc1-c1cnn(-c2cncc(C(=O)O)c2)c1 [Example 48, 5-{4-[5-(cyclopropylcarbamoyl)-2-methylphenyl]-1H-pyrazol-1-yl} pyridine-3-carboxylic acid] | 33
20 | Cc1ccc(C(=O)NC2CC2)cc1-c1cnn(-c2cncc(C(=O)N(C)C)c2)c1 [Example 49, 5-{4-[5-(cyclopropylcarbamoyl)-2-methylphenyl]-1H-pyrazol-1-yl}-N,N-dimethylpyridine-3-carboxamide] | 390
21 | CC(=O)NC(C)(C)c1cncc(-n2cc(-c3cc(C(=O)NC4CC4)ccc3C)cn2)c1 [Example 50, N-cyclopropyl-3-{1-[5-(2-acetamidopropan-2-yl)pyridin-3-yl]-1H-pyrazol-4-yl}-4-methylbenzamide] | 570
22 | Cc1ccc(C(=O)NC2CC2)cc1-c1cnn(-c2cncc(CC(=O)O)c2)c1 [Example 51, 2-(5-{4-[5-(cyclopropylcarbamoyl)-2-methylphenyl]-1H-pyrazol-1-yl}pyridin-3-yl)acetic acid] | 240
23 | Cc1ccc(C(=O)NC2CC2)cc1-c1cnn(-c2cncc(CC#N)c2)c1 [Example 52, 3-{1-[5-(cyanomethyl)pyridin-3-yl]-1H-pyrazol-4-yl}-N-cyclopropyl-4-methylbenzamide] | 56
24 | COc1cncc(-n2cnc(-c3cc(C(=O)NC4CC4)ccc3C)c2)c1 [Example 53, N-cyclopropyl-3-[1-(5-methoxypyridin-3-yl)-1H-imidazol-4-yl]-4-methyl-benzamide] | 7.6
25 | COc1cncc(-n2cnc(-c3cc(C(=O)NC4CC4)ccc3Cl)c2)c1 [Example 54, 4-chloro-N-cyclopropyl-3-[1-(5-methoxypyridin-3-yl)-1H-imidazol-4-yl]benzamide] | 41
26 | Cc1ccc(C(=O)NC2CC2)cc1-c1cnn(-c2cncc(NCCOC(C)(C)C)c2)c1 [Example 55, 3-[1-(5-{[2-(tert-butoxy)ethyl]amino}pyridin-3-yl)-1H-pyrazol-4-yl]-N-cyclopropyl-4-methylbenzamide] | 9.7
27 | CCO[C@H]1COC[C@@H]1Nc1cncc(-n2cc(-c3cc(C(=O)NC4CC4)ccc3C)cn2)c1 [Example 56, N-cyclopropyl-3-[1-(5-{[(3S,4R)-4-ethoxyoxolan-3-yl]amino}pyridin-3-yl)-1H-pyrazol-4-yl]-4-methyl-benzamide] | 10
28 | Cc1ccc(C(=O)NC2CC2)cc1-c1cnn(-c2cncc(NCC3COCCO3)c2)c1 (stereo not drawn) [Example 57, N-cyclopropyl-3-(1-{5-[(1,4-dioxan-2-ylmethyl)amino]pyridin-3-yl}-1H-pyrazol-4-yl)-4-methylbenzamide] | 4.5
29 | Cc1ccc(C(=O)NC2CC2)cc1-c1cnn(-c2cncc(NCCN3CCOC3=O)c2)c1 [Example 58, N-cyclopropyl-4-methyl-3-[1-(5-{[2-(2-oxo-1,3-oxazolidin-3-yl)ethyl]amino}pyridin-3-yl)-1H-pyrazol-4-yl]benzamide] | 3.8
30 | Cc1ccc(C(=O)NC2CC2)cc1-c1cnn(-c2cncc(NCC3CCCO3)c2)c1 (stereo not drawn) [Example 59, N-cyclopropyl-4-methyl-3-(1-{5-[(oxolan-2-ylmethyl)amino]pyridin-3-yl}-1H-pyrazol-4-yl)benzamide] | 9.1
